Literature values, collected in patent US20100022600A1, “METHODS AND COMPOSITIONS FOR TREATING CENTRAL NERVOUS SYSTEM TUMORS” (priority 2006, published 2010).

What was measured:
[1] = test system: cholesterol biosynthesis; settings: PPARγ-independent; Diabetes 1999; 48: 254-60; cited from earlier work
[2] = test system: acyl-CoA synthetase; settings: PPARγ-independent; J Biol Chem 2001; 276: 33736-40; cited from earlier work
[3] = test system: BT4Cn rat glioma cells; settings: Carcinogenesis 2001; 22: 1747-55; cited from earlier work
[4] = test system: C6 cells; settings: J Neurochem 2002; 81: 1052-60; cited from earlier work

## Cc1c(C)c2c(c(C)c1O)CCC(C)(COc1ccc(CC3SC(=O)NC3=O)cc1)O2 (single isomer, unassigned; (+)) [troglitazone, (+)-5 [[4-[(3,4-dihydro-6-hydroxy-2,5,7,8-tetramethyl-2H-1-benzopyran-2-yl)methoxy]phenyl]methyl]-2,4thiazolidinedione]
[1]
  cholesterol biosynthesis: inhibit
[2]
  acyl-CoA synthetase: inhibit

## O=C(Nc1ccccc1)c1cc([N+](=O)[O-])ccc1Cl [GW9662]
[3]
  effect on growth inhibition by PPARγ agonists: abolished

## CC1(COc2ccc(CC3SC(=O)NC3=O)cc2)CCCCC1 (stereo not shown) [ciglitazone, 5-[4-[(1-methylcyclohexyl)methoxy]benzyl]thiazolidine-2,4-dione]
[4]
  redifferentiation of C6 cells: increased redifferentiation
